Results published in the NIST ThermoML archive (doi:10.1021/je050050p).

Conditions: Liquid, Vibrating tube method

CN(C)C=O [dimethylformamide]
Conditions	mass density [kg/m3]
313.12 K, 1008 kPa	930.41
313.12 K, 2010 kPa	931.09
313.12 K, 3012 kPa	931.73
313.12 K, 4008 kPa	932.38
313.12 K, 5004 kPa	933.04
313.12 K, 6002 kPa	933.68
313.12 K, 7002 kPa	934.32
313.12 K, 8004 kPa	934.97
313.12 K, 9000 kPa	935.62
313.12 K, 10004 kPa	936.27
313.12 K, 11004 kPa	936.89
313.12 K, 12004 kPa	937.51
313.12 K, 13005 kPa	938.14
313.12 K, 14007 kPa	938.78
313.12 K, 15002 kPa	939.37
313.12 K, 16012 kPa	940
313.12 K, 17009 kPa	940.59
313.12 K, 18015 kPa	941.19
313.12 K, 19010 kPa	941.79
313.12 K, 20013 kPa	942.42
313.12 K, 21009 kPa	942.99
313.12 K, 22011 kPa	943.58
313.12 K, 23019 kPa	944.17
313.12 K, 24013 kPa	944.75
313.12 K, 25011 kPa	945.35
323.06 K, 1014 kPa	920.89
323.06 K, 2007 kPa	921.59
323.06 K, 3026 kPa	922.27
323.06 K, 4006 kPa	922.95
323.06 K, 5016 kPa	923.62
323.06 K, 6010 kPa	924.3
323.06 K, 7006 kPa	924.99
323.06 K, 8010 kPa	925.64
323.06 K, 9012 kPa	926.32
323.06 K, 10014 kPa	926.99
323.06 K, 11011 kPa	927.65
323.06 K, 12013 kPa	928.31
323.06 K, 13007 kPa	928.97
323.06 K, 14011 kPa	929.62
323.06 K, 15008 kPa	930.29
323.06 K, 16014 kPa	930.92
323.06 K, 17004 kPa	931.54
323.06 K, 18006 kPa	932.19
323.06 K, 19006 kPa	932.82
323.06 K, 20005 kPa	933.44
323.06 K, 21002 kPa	934.07
323.06 K, 22013 kPa	934.7
323.06 K, 23015 kPa	935.31
323.06 K, 24008 kPa	935.92
323.06 K, 25012 kPa	936.53
333 K, 1008 kPa	911.34
333 K, 2018 kPa	912.08
333 K, 3006 kPa	912.78
333 K, 4005 kPa	913.51
333 K, 5005 kPa	914.23
333 K, 6008 kPa	914.97
333 K, 7003 kPa	915.68
333 K, 8009 kPa	916.39
333 K, 9010 kPa	917.11
333 K, 10008 kPa	917.81
333 K, 11008 kPa	918.51
333 K, 12008 kPa	919.2
333 K, 13013 kPa	919.9
333 K, 14006 kPa	920.57
333 K, 15007 kPa	921.24
333 K, 16011 kPa	921.92
333 K, 17019 kPa	922.59
333 K, 18010 kPa	923.27
333 K, 19004 kPa	923.91
333 K, 20012 kPa	924.58
333 K, 21005 kPa	925.24
333 K, 22005 kPa	925.88
333 K, 23014 kPa	926.52
333 K, 24009 kPa	927.19
333 K, 25009 kPa	927.83
342.86 K, 1028 kPa	901.52
342.86 K, 2020 kPa	902.3
342.86 K, 3015 kPa	903.09
342.86 K, 4002 kPa	903.84
342.86 K, 5035 kPa	904.63
342.86 K, 6026 kPa	905.39
342.86 K, 7013 kPa	906.13
342.86 K, 8017 kPa	906.89
342.86 K, 9024 kPa	907.66
342.86 K, 10012 kPa	908.38
342.86 K, 11048 kPa	909.14
342.86 K, 11999 kPa	909.83
342.86 K, 13018 kPa	910.6
342.86 K, 14029 kPa	911.32
342.86 K, 15007 kPa	912.03
342.86 K, 15994 kPa	912.71
342.86 K, 17041 kPa	913.47
342.86 K, 18012 kPa	914.16
342.86 K, 19006 kPa	914.85
342.86 K, 20042 kPa	915.55
342.86 K, 21025 kPa	916.22
342.86 K, 22008 kPa	916.9
342.86 K, 23079 kPa	917.63
342.86 K, 24008 kPa	918.25
342.86 K, 25017 kPa	918.93
352.8 K, 1040 kPa	891.76
352.8 K, 2009 kPa	892.57
352.8 K, 3011 kPa	893.41
352.8 K, 4020 kPa	894.22
352.8 K, 5050 kPa	895.06
352.8 K, 6060 kPa	895.78
352.8 K, 6996 kPa	896.53
352.8 K, 8008 kPa	897.34
352.8 K, 9034 kPa	898.16
352.8 K, 10019 kPa	898.93
352.8 K, 11043 kPa	899.73
352.8 K, 11998 kPa	900.45
352.8 K, 13028 kPa	901.24
352.8 K, 14015 kPa	901.99
352.8 K, 15028 kPa	902.74
352.8 K, 16000 kPa	903.48
352.8 K, 17011 kPa	904.23
352.8 K, 17999 kPa	904.96
352.8 K, 19044 kPa	905.73
352.8 K, 20050 kPa	906.43
352.8 K, 21038 kPa	907.16
352.8 K, 21955 kPa	907.8
352.8 K, 23009 kPa	908.57
352.8 K, 23996 kPa	909.27
352.8 K, 25056 kPa	910.04
362.67 K, 1058 kPa	882.04
362.67 K, 2038 kPa	882.89
362.67 K, 3044 kPa	883.77
362.67 K, 4027 kPa	884.62
362.67 K, 5068 kPa	885.54
362.67 K, 6036 kPa	886.37
362.67 K, 7025 kPa	887.22
362.67 K, 8027 kPa	888.03
362.67 K, 9045 kPa	888.9
362.67 K, 10021 kPa	889.71
362.67 K, 11024 kPa	890.55
362.67 K, 11996 kPa	891.3
362.67 K, 13061 kPa	892.19
362.67 K, 14027 kPa	892.95
362.67 K, 15025 kPa	893.73
362.67 K, 15987 kPa	894.49
362.67 K, 17050 kPa	895.32
362.67 K, 18009 kPa	896.08
362.67 K, 19041 kPa	896.85
362.67 K, 20032 kPa	897.62
362.67 K, 21035 kPa	898.36
362.67 K, 22014 kPa	899.1
362.67 K, 23018 kPa	899.87
362.67 K, 24007 kPa	900.58
362.67 K, 25016 kPa	901.35
